Where “and” joins values, the source holds several entries; their conditions need not be identical. Equal values may be shown once. Entries after “also recorded” stand apart in the source; their conditions may differ.
Tests used:
[1] = test system: HDR repair pathway in the HEK293-EGIP cell line; assay: Traffic light reporter (TLR) assay, HDR efficiency by FACS (GFP positive cells); type: cell-based, human; conditions: for FACS Analysis - Percent HDR enhancement (gRNA-Cas9 + donor), Mean / FACS Analysis - Percent HDR enhancement (gRNA-Cas9 + donor), single replicate: 2.5 uM compound, HEK293-EGIP; for FACS Analysis - Percent HDR enhancement (gRNA-Cas9 + donor), Mean: mean of three technical replicates; for FACS Analysis - Percent HDR enhancement (gRNA-Cas9 + donor), single replicate: technical replicates 1-3 of one experiment; for fold increase in the amount of CRISPR-genome edited cells (HDR enhancement): compared to transfection in the absence of compound, Table 1, FIG. 2C; for GFP positive cells after transfection of donor repair template and gRNA-Cas9 (qualitative): FIG. 2A FACS dot plots
Source text: Traffic light reporter (TLR) assay: The HEK293-EGIP (Enhanced Green Fluorescent inhibited Protein) stable cell line was purchased from System Biosciences (SBI). The HEK293-EGIP cell line harbors a disrupted GPP coding sequence with a stop codon and a 53-bp genomic fragment from the AAVS1 locus. Cells were maintained in DMEM (Life Technologies, cat. no. 10313-039) with high glucose (Life Technologies, cat. no. 10313-039) supplemented with 10% heat-inactivated FBS (Fetal Bovine Serum, Expression Systems Inc.), Glutamax and Penicillin+Streptomycin and cultured at 37° C. and 5% CO2.
Cell transfection and NHEJ inhibitor treatment: The HEK293-EGIP stable cells were transfected with the two-in-one gRNA/CRISPR-Cas9 dual plasmid vector, plasmid repair donor (both plasmids from System Biosciences). Transfection was carried out using the Amaxa nucleofector system (Lonza) following manufacturer's protocol. After 16 hours, cells were treated with Compound 1 and Scr7 (Excess Bioscience; no. M60082-2s) at various concentrations, including 1 μM, 2.5 μM, 5 μM and 10 μM of compound. The structure of Scr7 is shown as follows:
Cell Sorting and Flow Cytometry: For flow cytometry analysis, HEK293 cells were trypsinized and resuspended in PBS/1% BSA FACS buffer and analyzed with a Fortessa flow cytometer (Becton Dickinson). A portion of cells were centrifuged and used for the isolation of genomic DNA.
Assays were performed to ascertain HDR efficiency in HEK293-EGIP cells. To this end, a bicistronic construct was used that targets the human AAVS1 locus (FIG. 1A). The bicistronic vector system co-expresses human codon optimized Cas9 driven by the EF1 promoter as well as custom guide RNA (gRNA) consisting of a chimeric crRNA-tracrRNA transcript driven by the Hl promoter. The hspCas9 contains two nuclear localization signals (NLS) at the N-terminus and C-terminus to ensure efficient import of the hspCas9 protein into the nucleus. The hspCas9 open reading frame (ORF) is followed by a regulatory element called WPRE (Woodchuck virus post-transcriptional regulatory element) to boost gene expression and stabilize the mRNA transcript.
The engineered human cell line, EGIP HEK293 was used to monitor HDR efficiency using the bicistronic construct described above and in FIG. 1A. The EGIP HEK293 reporter cell line was purchased from SBI. The HEK293-EGIP cell line harbors a disrupted GFP coding sequence with a stop codon and a 53-bp genomic fragment from the AAVS1 locus. The stable line was generated by lentiviral infection of 293T cells with an EF1alpha promoter to drive the expression of eGFP followed by puromycin selection. The eGFP sequence was modified to insert a 56 nucleotide insert (uppercase) from the human AAVS1 safe harbor site. This sequence contains a stop codon (TAA in red) after amino acid T109 in the eGFP translated sequence. The guide sequences targeted are in bold letters. Upon transfection with the guide and donor, the AAVS1 site within the broken eGFP was cut and the donor construct provided a homologous sequence to repair the eGFP, by removing the stop codon and the AAVS1 insert. Edited cells which had undergone HDR donor repair will generate GFP positive cells. Accordingly, co-transfecting Cas9, gRNA targeting AAVS1 and a AAVS1/EGFP rescue donor restored the sequence by HDR to give GFP+ cells.
The population of GFP positive cells was directly proportional with the efficiency of the homology directed repair (FIG. 1B).
For these assays, two-in-one Cas9-sgRNAs and eGFP donor template vectors were introduced into the HEK293 EGIP cells by electroporation using the Amaxa nucleofector (Lonza) to drive the synthesis of Cas9-sgRNAs and the eGFP donor template. Compounds were added 16 h post transfection followed by media change 48 hours later. Cells were then allowed to propagate for an additional 72 hours before FACS analysis. […]

[2] = test system: HDR efficiency in HEK-293 EGIP cells; assay: PCR genotyping and gel densitometry quantification of HDR efficiency; type: cell-based, human; conditions: HEK293-EGIP cells nucleofected with donor template and Cas9-sgRNA; for HDR Editing Efficiency, replicate 1 hdr 1 / HDR Editing Efficiency, replicate 2 hdr 2 / HDR Editing Efficiency, replicate 3 hdr 3 / HDR Editing Efficiency, replicate 4 hdr 4: PCR band densitometry; for HDR Editing Efficiency, Average: average of replicates 1-4
Source text: Genomic DNA isolation, PCR Genotyping, and Gel Quantification: Specially designed PCR primer pairs provided another means to assess HDR-mediated genome editing to obtain functional eGFP positive cells. The genotyping PCR primer pair is shown below, corresponding to SEQ ID NOs: 6 and 7. A 219 bp PCR product corresponds to unmodified cells and a 163 bp nucleotide corresponds to modification through HDR. Intensity of these bands on a >2.5% gel allows for estimation of HDR by densitometry using a Bio-Imager. The technique allows for the relative ranking of improvement of HDR by inhibitors. Intensities measured for each lane were normalized by calculating the ratios of PCR bands corresponding to ‘insertions’ divided by ‘total’ (inserted and unmodified). The fold-change was calculated by comparing the ratio of insertions with compound over that without compound.
Another series of experiments compared increase in HDR efficiency following contact with either Scr7 or Compound 1, a DNAPK inhibitor. For these experiments, HEK293-EGIP cells were nucleofected with donor template only or donor template and Cas9-sgRNA. To test the ability of Scr7 and Compound 1 to enhance HDR editing, cells that had been nucleofected with either donor template alone, or donor template and Cas9-sgRNA were administered either Scr7 or Compound 1.
HDR recombination status was ascertained by traditional “end-point” PCR primer genotyping and quantitation based on agarose band intensities. The primers produced distinct amplicons: a 219 bp nucleotide band corresponded to unmodified cells and a 163 bp nucleotide product for HDR event. Intensity of these bands on a >2.5% gel allows for estimation of HDR by densitometry using a Bio-Imager. The technique allows for the relative ranking of conditions for improvement of HDR by inhibitors of NHEJ. The genotyping PCR primer pairs for these assays is shown below.

[3] = test system: Serpin A1 gene in Huh7 hepato cellular carcinoma cells; assay: SerpinA1 gene editing assay (KpnI site introduction, PCR and Kpn digest); type: cell-based; conditions: Huh7 cells nucleofected with gRNA, Cas9 protein, donor repair template; 2.5 pM Compound 1 for three days; vs DMSO; FIG. 5
Protocol: Assays were performed to ascertain the ability of a DNAPK inhibitor to allow for the editing of a target gene. For these assays, the editing of the Serpin A1 gene from M to Z form was assessed. To this end, Huh7 hepato cellular carcinoma cells were nucleofected with gRNA and Cas9 protein, with or without a donor repair template in which a KpnI site was introduced. The nucleofected cells were then cultured in the presence of DMSO or 2.5 pM Compound 1 for three days, following which, the genomic DNA was amplified and assessed for the introduction of the Kpn site.
The assay works as follows: when the SerpinA1 gene is edited, Kpn endonuclease is able to digest the gene fragment, resulting in the appearance of a digested band on a gel only when the SerpinA1 gene is edited. Conversely, when the SerpinA1 is not edited, the Kpn endonuclease is not able cut the gene fragment, and thus there will not be an appearance of a new, digested band on a gel.

[4] = test system: HDR repair pathway in the HEK293-EGIP cell line; assay: Traffic light reporter (TLR) assay, HDR efficiency by FACS (GFP positive cells); type: cell-based, human; conditions: for increase in the amount of CRISPR-genome edited HEK-EGIP cells: 2.5 μM, 24 hours, in comparison to the gRNA-Cas9 and donor template condition only, FIG. 2A; for GFP positive cells: flow cytometry 10 days post transfection, 10 μM, FIG. 4

Structure (SMILES)	FACS Analysis - Percent HDR enhancement (gRNA-Cas9 + donor), Mean [1] [%]	FACS Analysis - Percent HDR enhancement (gRNA-Cas9 + donor), single replicate [1]	fold increase in the amount of CRISPR-genome edited cells (HDR enhancement) ([1]; 2.5 μM) [fold]	fold better HDR enhancement compared to transfection with Scr7 ([1]; 2.5 μM, two separate experiments in triplicates, FIGS. 2B and 2C) [fold]	GFP positive cells after transfection of donor repair template and gRNA-Cas9 (qualitative) [1]	HDR Editing Efficiency, replicate 1 hdr 1 [2]	HDR Editing Efficiency, replicate 2 hdr 2 [2]	HDR Editing Efficiency, replicate 3 hdr 3 [2]	HDR Editing Efficiency, replicate 4 hdr 4 [2]	HDR Editing Efficiency, Average [2]	gene editing of the SerpinA1 gene (introduction of Kpn site, digested band on gel) [3]	increase in the amount of CRISPR-genome edited HEK-EGIP cells [4]	fold increase in HDR enhancement compared to SCR7 ([1]; 10 μM Compound 3, experiments in triplicates, compared to transfection in the presence of SCR7)	GFP positive cells [4]
CNC(=O)c1ccnc2c([C@H](C)CNc3cc(-c4cnc(C)nc4)ncn3)cccc12 [Compound 1, (5)-N-methyl-8-(1-((2′-methyl-[4,5′-bipyrimidin]-6-yl)amino)propan-2-yl)quinoline-4-carboxamide]	0.64	0.44% and 6.82% and 0.65%	~4.5	2	increase in GFP positive cells	8.4 and 4.3 and 4.9	29 and 27.4 (2×)	27.5 and 58.3 and 29.8	27.6 and 40 and 25.1	23.125 and 32.5 and 21.8	allowed for gene editing in comparison to the DMSO condition; also recorded: resulted in gene editing of the SerpinA1 gene	approximately 83%		
CNC(=O)c1ccnc2c([C@H](C)CNc3cc(-c4ccc(C)nc4)ncn3)cccc12 [Compound 3]													about 8 fold	4%
Oc1nc(S)nc(/N=C/c2ccccc2)c1/N=C/c1ccccc1 [Scr7, reference compound]	0.32	0.16% and 0.62% and 0.19%	~2.3		increase in GFP positive cells	1.3 and 14.1 and 5.8	18.2 and 22.7 and 21.8	16.6 and 20.2 and 21.3	16.4 and 28.1 and 23	13.125 and 21.275 and 17.975		approximately 30%		about 0.5%
